The target of the test is T1, Lpa5930; P. acidilactici CECT 5930 laccase (D2EK17 protein) (Pediococcus acidilactici, UniProt Z9B926UHL0).
T1 construct: pET28a, E. coli BL21(DE3)/pGro7; ~60 kDa by SDS-PAGE; D2EK17 is the UniProt entry of the strain 7_4 homologue
T1 sequence (Z9B926UHL0 1-477): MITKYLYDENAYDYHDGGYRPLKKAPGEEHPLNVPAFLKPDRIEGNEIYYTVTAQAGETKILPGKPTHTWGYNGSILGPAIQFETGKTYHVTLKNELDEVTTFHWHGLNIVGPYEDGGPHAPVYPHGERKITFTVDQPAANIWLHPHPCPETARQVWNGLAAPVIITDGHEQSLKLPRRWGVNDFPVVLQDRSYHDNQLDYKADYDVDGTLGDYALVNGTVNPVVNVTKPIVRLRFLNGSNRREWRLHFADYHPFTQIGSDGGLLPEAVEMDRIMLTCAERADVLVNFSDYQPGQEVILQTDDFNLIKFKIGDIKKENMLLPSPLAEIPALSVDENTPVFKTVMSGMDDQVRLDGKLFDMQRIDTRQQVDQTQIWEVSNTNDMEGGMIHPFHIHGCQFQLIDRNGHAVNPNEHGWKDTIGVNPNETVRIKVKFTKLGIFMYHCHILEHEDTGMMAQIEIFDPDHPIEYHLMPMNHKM
Briefly: ABTS oxidation, absorbance at […] nm, Michaelis-Menten fit. Type of test: biochemical. The note with it: acetate buffer pH 4.0, 28°C; apparent Km (abstract).

The structures appear in SMILES notation.

By Km is commonly meant the concentration of substrate that gives half-maximal velocity.

As to `CCn1c(=NN=c2sc3cc(S(=O)(=O)O)ccc3n2CC)sc2cc(S(=O)(=O)O)ccc21` [ABTS, 2,2′-azino-bis(3-ethylbenzothiazoline-6-sulfonic acid)], the Km is 1700 µM.

The values above are taken from paper PMC5636118, “Recombinant laccase from Pediococcus acidilactici CECT 5930 with ability to degrade tyramine” (PLoS ONE, 2017).
